The source of these data is US7723473B2, “Peptide antagonists of TGF-beta family members and therapeutic uses thereof” (St. Louis University, priority 1997, dated 2010).

One assay has as its system TGF-β receptors. Kind of assay: Inhibition of specific binding of 125I-TGF-β1 to TGF-β receptors in mink lung epithelial cells. To be noted: peptide at 34 μM. As for the experimental part: Specific binding of ^125I-labeled TGF-β1, TGF-β2, and TGF-β3 (^125I-TGF-β1, ^125I-TGF-β2, and ^125I-TGF-β3) to TGF-β receptors in mink lung epithelial cells. ^125I-TGF-β1, ^125I-TGF-β2, and ^125I-TGF-β3 were prepared by iodination of TGF-β1, TGF-β2, and TGF-β3 with Na^125I as described previously (Ref. 7). The specific radioactivities of ^125I-TGF-β1, ^125I-TGF-β2, and ^125I-TGF-β3 were 1-3×10^5 cpm/ng. Mink lung epithelial cells were grown on 24-well clustered dishes to near confluence in Dulbecco's modified Eagle medium (DMEM) containing 10% fetal calf serum. The epithelial cells were incubated with 0.1 nM ^125I-TGF-β1, ^125I-TGF-β2, or ^125I-TGF-β3 both with and without 100-fold excess of unlabeled TGF-β1, TGF-β2, or TGF-β3 in binding buffer (Ref. 7). After 2.5 hr at 0° C., the cells were washed two times with binding buffer, and the cell-associated radioactivity was determined. […] All experiments were carried out in triplicate cell cultures.

The subject of the next assay is burn wounds. Put plainly: Pig burn wound model. The format is in vivo. To be noted: for re-epithelialization / healing rate versus vehicle: after post-burn day 10; for scarring versus vehicle-only control wounds: post-burn day 35 (and 41). As for the experimental part:
Preparation of IntraSite® gel containing TGF-β peptantagonist (peptide TGF-beta antagonist). 1 ml of sterile 6 mM peptide β1^25 (41-65) in phosphate buffered saline or 1 ml of sterile phosphate buffered saline was vigorously mixed with 3 ml of IntraSite® gel using two 10 ml syringes connected with a three-way connector. […] However, 1.5 mM of peptide β1^25 (41-65) was used throughout the experiments described below.
Burn wound model. Four pigs weighing 20-25 kg were anesthetized by intramuscular injection of ketamine (5 mg/kg), strenil® (cazaporonum) (20 mg/kg) and atropine (5 mg/kg). Six uniform burn wounds (110° C., 30 sec) were then made symmetrically on the back of each pig using a modified soldering iron (Ref. 15) with a flat contact area of 20 cm^2. […] After wounding, a thin layer of Intrasite®) gel containing either peptide β1^25 (41-65), buffer or nothing else was applied to the wounds. All wounds were dressed with paraffin gauze. The dressing was changed every two days for the first 10 days and twice a week for the next 30 days. Gel comprising peptide β1^25 (41-65) and control gel were applied and wound measurements were made at each dressing change.
Assessment of wound healing. Wound healing was assessed by evaluating the rates of wound re-epithelization and contraction. The open wound area and the area enclosed by the normal hair bearing skin were measured using the macrophotography technique (Ref. 14). The healing rate was monitored every two days for the first 10 days and twice a week for 30 more days. Wound reepithelialization as a percent of the original wound size was calculated using the following formula:
[formula] where E=rate of re-epithelialization in percent; An=area enclosed by the normal hair bearing skin on a given post-burn day; Ao=area of open wound on the same day as was measured. Wound contraction was calculated using the following formula:
[formula] where C=rate of wound contraction in percent; Al=wound area as measured immediately following the burn or excision injury; An=area enclosed by normal hair bearing skin.
Measurement of scar. The volumes of scar tissue were estimated by multiplying their thickness by the size of the scar on post-burn day 41 in pigs and post-excision day 10 in rabbits.

For another assay, the target named is T1, α2-macroglobulin (Homo sapiens, UniProt P01023).
T1 sequence (P01023 24-1474): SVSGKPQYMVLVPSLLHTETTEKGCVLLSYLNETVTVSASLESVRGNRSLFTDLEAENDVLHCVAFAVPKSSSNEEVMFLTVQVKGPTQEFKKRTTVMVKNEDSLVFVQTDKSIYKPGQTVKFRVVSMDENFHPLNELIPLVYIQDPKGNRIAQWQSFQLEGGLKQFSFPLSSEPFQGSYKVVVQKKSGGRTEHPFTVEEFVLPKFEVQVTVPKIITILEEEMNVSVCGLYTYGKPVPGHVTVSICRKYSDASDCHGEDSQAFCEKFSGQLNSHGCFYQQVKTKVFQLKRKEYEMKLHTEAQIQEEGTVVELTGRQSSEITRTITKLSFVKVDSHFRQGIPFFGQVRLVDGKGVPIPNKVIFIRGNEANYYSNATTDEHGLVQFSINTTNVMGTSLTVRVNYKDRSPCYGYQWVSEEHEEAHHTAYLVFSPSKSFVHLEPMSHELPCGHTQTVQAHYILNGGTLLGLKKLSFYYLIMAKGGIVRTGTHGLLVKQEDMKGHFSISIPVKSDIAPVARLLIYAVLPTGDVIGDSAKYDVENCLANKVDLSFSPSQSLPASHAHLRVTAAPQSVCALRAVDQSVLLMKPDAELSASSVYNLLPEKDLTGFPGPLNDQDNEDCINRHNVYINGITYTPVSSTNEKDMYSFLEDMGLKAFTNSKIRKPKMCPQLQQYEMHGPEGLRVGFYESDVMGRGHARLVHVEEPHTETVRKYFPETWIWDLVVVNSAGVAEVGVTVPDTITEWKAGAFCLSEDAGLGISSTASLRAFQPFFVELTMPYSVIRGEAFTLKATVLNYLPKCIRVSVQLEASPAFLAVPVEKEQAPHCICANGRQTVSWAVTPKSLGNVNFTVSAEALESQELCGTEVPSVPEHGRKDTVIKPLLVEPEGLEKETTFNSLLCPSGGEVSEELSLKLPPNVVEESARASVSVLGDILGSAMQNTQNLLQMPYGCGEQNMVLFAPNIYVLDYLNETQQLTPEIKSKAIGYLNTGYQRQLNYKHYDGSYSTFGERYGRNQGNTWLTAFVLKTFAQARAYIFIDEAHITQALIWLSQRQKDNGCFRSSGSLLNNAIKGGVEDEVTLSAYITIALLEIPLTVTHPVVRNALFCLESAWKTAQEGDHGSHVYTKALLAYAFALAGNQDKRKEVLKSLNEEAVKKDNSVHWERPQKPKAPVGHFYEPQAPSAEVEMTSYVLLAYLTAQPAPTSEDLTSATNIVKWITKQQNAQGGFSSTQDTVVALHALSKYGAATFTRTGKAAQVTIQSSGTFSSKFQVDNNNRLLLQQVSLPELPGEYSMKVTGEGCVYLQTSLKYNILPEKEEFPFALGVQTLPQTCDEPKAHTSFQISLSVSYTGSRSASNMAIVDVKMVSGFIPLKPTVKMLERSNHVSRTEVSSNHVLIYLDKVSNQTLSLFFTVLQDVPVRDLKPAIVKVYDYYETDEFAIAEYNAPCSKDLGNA
To be noted: Ref. 22; cited from earlier work.

Setting [1] is: 1.5 mM in gel, topical, listed as TGF-β peptantagonist.

As to “ANFCLGPCPYIWSLDTQYSKVLALY [peptide β1^25 (41-65)]”, the “inhibition of 125I-TGF-β1 binding to TGF-β receptors” value in the assay on TGF-β receptors is on record as “completely inhibited”. Besides, the “wound contraction versus vehicle only” value with burn wounds (1.5 mM in gel, topical) is recorded as “less contraction”; in the assay with burn wounds (setting [1]) it was “contracted significantly”. For the same sequence, the “re-epithelialization / healing rate versus vehicle” value is listed as “rapid re-epithelialization” in the assay with burn wounds (1.5 mM in gel, topical) and “healed faster” in the assay with burn wounds (setting [1]). For the same sequence, the re-epithelialization complete in the assay on burn wounds (1.5 mM in gel, topical, n=4) came out at 26±2 post-burn day. Also, the “accelerating wound healing and reducing scarring” value in the assay on burn wounds (0.75 and 1.5 mM peptide in gel, topical) is listed as “effective”. The open wound result in the assay on burn wounds (post-burn day 23) and with burn wounds (post-burn day 34) was “very little open wound” in each case. The sequence further gave a wound contraction in the assay with burn wounds (post-burn day 33, 1.5 mM in gel, n=4) of 50±4%. Besides, the “scarring versus vehicle-only control wounds” value in the assay with burn wounds is listed as “less scarring”; in the assay on burn wounds (listed as TGF-β peptantagonist) it was “less scar formation”. Besides, the “volume of scar tissue” value in the assay on burn wounds (post-burn day 41) came out at 0.07±0.02 cm^3. Further, the “complex formation between α2-macroglobulin and growth factors, cytokines and hormones” value on α2-macroglobulin is listed as “block complex formation”.
